The target in this assay is T1, Human P2Y12 (Homo sapiens, UniProt Q9H244).
T1 construct: expressed in transfected cells; host or cells: HEK cells (membrane preparation)
The assay is described as follows: [^33P]-2MeS-ADP Binding to Recombinant Human P2Y12 Membranes (Assay 3). The following applies: for inhibition at 10 µM / % Inhibition, [^33P]-2MeS-ADP Binding to Recombinant Human P2Y12 Membranes (Assay 3): highest concentration tested 10 μM; for IC50 / Ki: membranes of HEK cells transfected with P2Y12, competition with ^33P 2MeS-ADP, multiple lines = multiple runs. On the procedure: 3. Human P2Y12 Recombinant Cell Membrane Binding Assay with ^33P 2MeS-ADP.
The ability of a test compound to bind to the P2Y12 receptor was evaluated in a recombinant cell membrane binding assay. In this competitive binding assay, the test compound competed against a radiolabelled agonist for binding to the P2Y12 receptor, expressed on the cell membrane. Inhibition of binding of the labeled material was measured and correlated to the amount and potency of the test compound. Data from this assay are presented in Table F. This binding assay is a modification of the procedure in Takasaki, J. et. al, Mol. Pharmacol., 2001, Vol. 60, pg. 432.
HEK cells were transfected with the pDONR201P2Y12 vector and cultured in MEM with GlutaMAX I, Earle's salts, 25 mM HEPES (Gibco #42360-032) containing 10% dialyzed FBS (Gibco #26400-044), 100 μM nonessential amino acids (Gibco #11140-050), 1 mM sodium pyruvate (Gibco #11360-070), 0.05% geneticin (Gibco #10131-027), 3 μg/mL blasticidin (Fluka brand from Sigma #15205), and 0.5 μg/mL puromycin (Sigma #P-8833).
Confluent cells were washed once with cold DPBS (Gibco #14190-136). Fresh DPBS was added and the cells were scraped and centrifuged at 500×g for 5 minutes at 4° C. The cell pellets were resuspended in TEE buffer (25 mM Tris, 5 mM EDTA, 5 mM EGTA) containing 1 protease inhibitor cocktail tablet (Roche #1 873 580) per 50 mL (called TEE+Complete) and can be flash frozen at this point.
In one embodiment, frozen cell pellets were used to prepare the membranes. In that embodiment, the frozen cell pellets were thawed on ice. In another embodiment, cell pellets may be used without flash freezing before moving on to the next step.
Cell pellets were resuspended in TEE buffer+Complete and homogenized in a glass dounce for 12 strokes. The cell suspension was centrifuged at 500×g for 5 minutes at 4° C. The supernatant was saved and centrifuged at 20,000×g for 20 minutes at 4° C. This supernatant was discarded and the cell pellet resuspended in TEE buffer+Complete and homogenized in a glass dounce for 12 strokes. This suspension was centrifuged at 20,000×g for 20 minutes at 4° C. and the supernatant discarded. The pellet was resuspended in assay buffer (50 mM Tris, 100 mM NaCl, 1 mM EDTA) containing one protease inhibitor cocktail tablet per 50 mL, and can be flash frozen as 1 mL aliquots at this point.
[…] A 1 mM DMSO intermediate stock was made in a dilution plate and from this the seven dilutions were made to 5× the final concentration in assay buffer containing 0.02% BSA.
To a polypropylene assay plate (Costar #3365) the following were added: a) 30 μL of assay buffer containing one protease inhibitor cocktail tablet per 50 mL; b) 30 μL of 1 nM ^33P 2MeS-ADP made in assay buffer containing 0.02% BSA and 12.5 mg/mL ascorbic acid; 30 μL of cold 1.5 μM 2MeS-ADP for the positive control wells, or assay buffer containing 0.02% BSA and 12.5 mg/mL ascorbic acid for the negative control wells, or 5× drug dilution; and 60 μL of 1 ug/well membranes.
The plates were incubated at room temperature for 1 hour. The reaction was stopped using a cell harvester to transfer the reaction mixture onto GF/B UniFilter plates (Perkin Elmer #6005177), and washed three times with wash buffer (50 mM Tris), filtering between each wash. The filter plates were dried for approximately 20 minutes in an oven at 50° C. Back seals were adhered to the filter plates and 25 uL of Microscint 20 scintillation fluid (Perkin Elmer #6013621) were added. The filter plates were sealed, shaken for 30 minutes, and counted on a Top Count. Data were analyzed using a four-parameter curve fit with a fixed minimum and maximum experimentally defined as the average positive and negative controls on each plate, and with a hill slope equal to one. […]

Values joined by “and” are separate entries in the source; they are usually repeats but may differ in a detail not shown here. Identical values can stand only once.

Usually inhibition stands for how much of the control response was suppressed. As usually defined, the IC50 is the point on the concentration scale where inhibition reaches its midpoint. The Ki is a measure of affinity in units of concentration, obtained from inhibition or displacement.

T1 sequence (Q9H244 whole entry): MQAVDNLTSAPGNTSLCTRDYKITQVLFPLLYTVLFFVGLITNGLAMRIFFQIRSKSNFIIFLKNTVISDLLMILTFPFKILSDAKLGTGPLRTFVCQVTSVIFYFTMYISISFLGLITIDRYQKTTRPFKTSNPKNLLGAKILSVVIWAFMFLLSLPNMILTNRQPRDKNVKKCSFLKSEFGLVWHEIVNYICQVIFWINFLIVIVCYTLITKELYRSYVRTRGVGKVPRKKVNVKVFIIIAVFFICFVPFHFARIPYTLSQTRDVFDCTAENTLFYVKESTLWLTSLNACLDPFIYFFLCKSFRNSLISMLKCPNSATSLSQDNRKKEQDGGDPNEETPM

As for `CCOC(=O)CNC(=O)Nc1nc(N2CCN(C(=O)c3ccc(-c4ccccc4)cc3)CC2)c2cc(CC)sc2n1` [Example 15, Ethyl N-[({4-[4-(1,1′-biphenyl-4-ylcarbonyl)piperazin-1-yl]-6-ethylthieno[2,3-d]pyrimidin-2-yl}amino)carbonyl]glycinate], the inhibition at 10 µM is 94.5%, the half-inhibitory concentration (IC50) worked out at 0.066 µM and the inhibition constant Ki was determined as 0.038 µM.

Consider `CCOC(=O)CCNC(=O)Nc1nc(N2CCN(C(=O)CC(F)(F)F)CC2)c2cc(CC)sc2n1` [Example 46, Ethyl N-[({6-ethyl-4-[4-(3,3,3-trifluoropropanoyl)piperazin-1-yl]thieno[2,3-d]pyrimidin-2-yl}amino)carbonyl]-beta-alaninate], for which the “% Inhibition, [^33P]-2MeS-ADP Binding to Recombinant Human P2Y12 Membranes (Assay 3)” value is 46.8% and 71.7%; the IC50 was 6.88 µM and 4.16 µM; the Ki is 3.82 µM and 2.3 µM.

As for `CCc1cc2c(N3CCN(C(=O)c4ccc(-c5ccccc5)cc4)CC3)nc(NC(=O)C3OC(OC)[C@@H]4OC(C)(C)O[C@H]34)nc2s1` (stereo partly drawn) [Example 31, (7R,8S)-6-Methoxy-2,2-dimethyltetrahydrofuro[3,4-d][1,3]dioxole-4-carboxylic acid{4-[4-(biphenyl-4-carbonyl)piperazin-1-yl]-6-ethylthieno[2,3-d]pyrimidin-2-yl}amide], the “% Inhibition, [^33P]-2MeS-ADP Binding to Recombinant Human P2Y12 Membranes (Assay 3)” value is reported as 72.4%; the inhibition at 10 µM stood at 76.7%; the IC50 was 0.345 µM and 0.678 µM; the Ki is 0.189 µM and 0.329 µM.

In the case of `CCc1cc2c(N3CCN(C(=O)c4ccc(-c5ccccc5)cc4)CC3)nc(NC(=O)c3ccccn3)nc2s1` [Example 33, {4-[4-(Biphenyl-4-carbonyl)piperazin-1-yl]-6-ethylthieno[2,3-d]pyrimidin-2-yl}picolinamide], the inhibition at 10 µM worked out at 87.9%, the IC50 was found to be 0.0389 µM and the Ki was determined as 0.021 µM.

As for `CCc1cc2c(N3CCN(C(=O)c4ccc(-c5ccccc5)cc4)CC3)nc(NC(=O)NCCCO)nc2s1` [Example 20, N-{4-[4-(1,1′-Biphenyl-4-ylcarbonyl)piperazin-1-yl]-6-ethylthieno[2,3-d]pyrimidin-2-yl}-N′-(3-hydroxypropyl)urea], the inhibition at 10 µM is 89%, the IC50 is 0.072 µM and the Ki is 0.047 µM.

For `CCc1cc2c(N3CCN(C(=O)c4ccc(-c5ccccc5)cc4)CC3)nc(NC(=O)C(C)C)nc2s1` [Example 24], the inhibition at 10 µM came to 90%, the IC50 amounted to 0.163 µM and the Ki was determined as 0.089 µM.

`CCc1cc2c(N3CCN(C(=O)c4ccc(-c5ccccc5)cc4)CC3)nc(NC(C)=O)nc2s1` [Example 25, N-{4-[4-(Biphenyl-4-carbonyl)piperazin-1-yl]-6-ethylthieno[2,3-d]pyrimidin-2-yl}acetamide]: the inhibition at 10 µM came out at 91%, the 50% inhibitory concentration (IC50) turned out to be 0.159 µM and the Ki was found to be 0.093 µM.

In the case of `CCOC(=O)CCNC(=O)Nc1nc(N2CCN(C(=O)c3ccc(-c4ccccc4)cc3)CC2)c2cc(CC)sc2n1` [Example 17, ethyl N-[({4-[4-(1,1′-biphenyl-4-ylcarbonyl)piperazin-1-yl]-6-ethylthieno[2,3-d]pyrimidin-2-yl}amino)carbonyl]-beta-alaninate], the inhibition at 10 µM was determined as 89.9%, the IC50 came out at 0.157 µM and the Ki was 0.09 µM.

On to `CCc1cc2c(N3CCN(C(=O)c4ccc(-c5ccccc5)cc4)CC3)nc(NC(=O)c3ccncc3)nc2s1` [Example 34, {4-[4-(Biphenyl-4-carbonyl)piperazin-1-yl]-6-ethylthieno[2,3-d]pyrimidin-2-yl}isonicotinamide], for which the inhibition at 10 µM was determined as 74.8%, the IC50 was found to be 0.582 µM and the Ki amounted to 0.328 µM.

With `CCc1cc2c(N3CCN(C(=O)c4ccc(-c5ccccc5)cc4)CC3)nc(NC(=O)CO)nc2s1` [Example 37, N-{4-[4-(Biphenyl-4-carbonyl)piperazin-1-yl]-6-ethylthieno[2,3-d]pyrimidin-2-yl}-b-hydroxyacetamide], the IC50 is 0.0493 µM and the inhibition constant (Ki) was found to be 0.024 µM. For the same compound, the inhibition at 1 µM (highest concentration tested 1 μM) amounted to 84.5%.

The values are drawn from patent US20080200475A1 (Pfizer Inc., priority 2005, published 2008).
